Measured values taken from US7560482B2, “Inhibitors of plasmepsins” (The Johns Hopkins University, priority 2001, dated 2009).
Where two headings read alike, the source gives them in different places.

Legend:
[1] = biological target: T1, plasmepsin II from Plasmodium falciparum (Plm II) (Plasmodium falciparum, UniProt P46925); test: Plasmepsin II inhibition assay, hydrolysis of chromogenic substrate; assay type: biochemical; conditions: for discrimination factor / Cathepsin D selectivity: Plasmepsin II versus Cathepsin D, fold; for Discrimination Factor: Fold Selectivity for Plasmepsin II over Cathepsin D: ratio of the Ki for Cathepsin D to the Ki for Plasmepsin II
T1 construct: made in house; host or cells: Escherichia coli
Description: FIG. 7A-C. Inhibition of Plasmepsin II from Plasmodium falciparum by KNI-10033, KNI-10030 and KNI-10006 at 20° C. in 10 mM sodium citrate, 100 mM NaCl, 2% DMSO, pH 4.0. The inhibition constants are 3 nM, 11 nM and 0.5 rLM respectively.
(§1) The specific activity of plasmepsin II from Plasmodium falciparum (Plm II) cloned in and purified from Escherchia coli and commercially available human Cathepsin D were measured by following the hydrolysis of the chromogenic substrate Ala-Leu-Glu-Arg-Thr-nPhe-Phe-Ser-Phe-Pro-Thr-OH (California Peptide Research Inc., Napa, Calif.). The decrease in absorbance upon hydrolysis is monitored at 300 nm. Typical Plasmepsin II preparations hydrolyze chromogenic substrate at 4-5 s^−1 at 37° C. The inhibition assays were performed at 25° C. in 10 mM sodium formate, 2% DMSO, pH 4.0. These pH conditions mimic the conditions in the food vacuole of the parasite. […] Inhibition constants (Ki) for the inhibitors are obtained at the desired temperature and solvent conditions by measuring the rate of substrate hydrolysis at increasing amounts of inhibitors. Exemplary results from three compounds (KNI-10033, KNI-10030 and KNI-10006) are shown in FIG. 7A-C, and the results obtained with all KNI compounds tested are given in Table 1.

human Cathepsin D = biological target: T2, human Cathepsin D (Homo sapiens, UniProt P07339); test: Cathepsin D inhibition assay, hydrolysis of chromogenic substrate; assay type: biochemical
T2 construct: purchased
Description: as §1

[2] = 25° C., 10 mM sodium formate, 2% DMSO, pH 4.0, fit to competitive inhibition, read-out: Ki Plm II
[3] = 25° C., 10 mM sodium formate, 2% DMSO, pH 4.0, fit to competitive inhibition, read-out: Ki CatD
[4] = Table 2, read-out: Ki Cathepsin D

T1 sequence (P46925 125-453): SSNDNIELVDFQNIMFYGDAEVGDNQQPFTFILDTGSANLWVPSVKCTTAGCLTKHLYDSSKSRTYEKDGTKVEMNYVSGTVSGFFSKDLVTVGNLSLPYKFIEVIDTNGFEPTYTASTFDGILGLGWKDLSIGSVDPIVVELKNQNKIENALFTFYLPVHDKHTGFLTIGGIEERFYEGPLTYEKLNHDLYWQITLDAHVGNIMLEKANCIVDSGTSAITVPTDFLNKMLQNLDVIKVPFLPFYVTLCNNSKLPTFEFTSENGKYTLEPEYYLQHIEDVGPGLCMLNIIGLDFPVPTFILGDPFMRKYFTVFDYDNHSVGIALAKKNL
T2 sequence (P07339 65-412): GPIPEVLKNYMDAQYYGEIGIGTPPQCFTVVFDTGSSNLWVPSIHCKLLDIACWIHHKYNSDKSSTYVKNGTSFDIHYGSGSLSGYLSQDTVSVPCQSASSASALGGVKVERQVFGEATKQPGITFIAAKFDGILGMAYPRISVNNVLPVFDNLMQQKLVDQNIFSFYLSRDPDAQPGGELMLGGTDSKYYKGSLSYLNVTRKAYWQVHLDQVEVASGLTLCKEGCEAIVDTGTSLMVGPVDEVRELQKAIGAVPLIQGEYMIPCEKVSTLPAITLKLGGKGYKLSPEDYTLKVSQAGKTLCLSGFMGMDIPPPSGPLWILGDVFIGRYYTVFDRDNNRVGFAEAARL

SMILES	Ki [1, 2]	Ki (human Cathepsin D; [3])	other results
Cc1cccc(C)c1OCC(=O)NC(Cc1ccccc1)C(O)C(=O)N1CSC(C)(C)C1C(=O)NCc1ccc(O)cc1 (stereo not drawn) [KNI-10054]	273 ± 41 nM	1640 ± 146 nM	
Cc1cccc(C)c1OCC(=O)N[C@@H](Cc1ccccc1)[C@H](O)C(=O)N1CSC(C)(C)[C@H]1C(=O)NCc1cccc(O)c1 [KNI-10048]	99 ± 14 nM	771 ± 97 nM	
CC(C)[C@H](NC(=O)Cc1ccc2ccccc2c1)C(=O)N[C@@H](Cc1ccccc1)[C@H](O)C(=O)N1CSC(C)(C)[C@H]1C(=O)NC(C)(C)C [KNI-10029]	860 ± 90 nM	282 ± 39 nM	
COc1ccc(CNC(=O)[C@H]2N(C(=O)[C@@H](O)[C@H](Cc3ccccc3)NC(=O)COc3c(C)cccc3C)CSC2(C)C)cc1 [KNI-10008]	169 ± 20 nM	461 ± 140 nM	
CSCC(NC(=O)COc1cccc2cnccc12)C(=O)NC(Cc1ccccc1)C(O)C(=O)N1CSC(C)(C)C1C(=O)NC(C)(C)C (stereo not drawn) [KNI-227]	36 ± 10 nM	1770 ± 230 nM	inhibition constants against Plasmepsin II, in words [1]: nanomolar and subnanomolar range; discrimination factor / Cathepsin D selectivity [1]: 50; Ki ([1]; Table 2, read-out: Ki Plasmepsin II): 36 nM; Discrimination Factor: Fold Selectivity for Plasmepsin II over Cathepsin D [1]: ~49; Ki ([1]; read-out: Ki against Plasmepsin II): 30 nM; Ki (human Cathepsin D; [4]): 1770 nM
Cc1cccc(C)c1OCC(=O)N[C@@H](Cc1ccccc1)[C@H](O)C(=O)N1CSC(C)(C)[C@H]1C(=O)N[C@@H]1c2ccccc2C[C@@H]1O [KNI-10007]	71 ± 10 nM	806 ± 600 nM	
CC(C)[C@H](NC(=O)COc1cccc(Nc2ccccc2)c1)C(=O)N[C@@H](Cc1ccccc1)[C@H](O)C(=O)N1CSC(C)(C)[C@H]1C(=O)NC(C)(C)C [KNI-10005]	250 ± 190 nM	507 ± 100 nM	
Cc1cccc(C)c1OCC(=O)NC(Cc1ccccc1)C(O)C(=O)N1CSC(C)(C)C1C(=O)NC(CO)c1ccccc1 (stereo not drawn) [KNI-10044]	532 ± 70 nM	1040 ± 178 nM	
COc1ccc(CCNC(=O)[C@H]2N(C(=O)[C@@H](O)[C@H](Cc3ccccc3)NC(=O)COc3c(C)cccc3C)CSC2(C)C)cc1 [KNI-10025]	75 ± 10 nM	655 ± 83 nM	

Now from value to compound, other results behind:

Ki [1, 2]	Ki (human Cathepsin D; [3])	SMILES	other results
1080 ± 165 nM	6160 ± 671 nM	CC(C)(C)NC(=O)[C@H]1N(C(=O)[C@@H](O)[C@H](Cc2ccccc2)NC(=O)COc2cccc(Cl)c2)CSC1(C)C [KNI-10045]	
96900 ± 19100 nM	8120 ± 1500 nM	CC(C)(C)NC(=O)[C@@H]1CSCN1C(=O)[C@@H](O)[C@H](Cc1ccccc1)NC(=O)CCC(=O)O [KNI-357]	
1390 ± 500 nM	7260 ± 1400 nM	CC(C)(C)NC(=O)[C@H]1N(C(=O)[C@@H](O)[C@H](Cc2ccccc2)NC(=O)CC(C)(C)C(=O)O)CSC1(C)C [KNI-413]	
8090 ± 2600 nM	8820 ± 2800 nM	CSC[C@H](NC(=O)COc1cccc2cnccc12)C(=O)N[C@@H](Cc1ccccc1)[C@@H](O)C(=O)N1CSC[C@H]1C(=O)NC(C)(C)C [KNI-529]	
1510 ± 125 nM	2580 ± 682 nM	CC(C)C(NC(=O)OCc1ccccc1)C(=O)NC(Cc1ccccc1)C(O)C(=O)N1CSC(C)(C)C1C(=O)NC(C)(C)C (stereo not drawn) [KNI-10049]	
70 ± 40 nM	1600 ± 300 nM	Cc1cccc(C)c1OCC(=O)NC(Cc1ccccc1)C(O)C(=O)N1CSC(C)(C)C1C(=O)NC(C)(C)C (stereo not drawn) [KNI-727]	inhibition constants against Plasmepsin II, in words [1]: nanomolar and subnanomolar range; discrimination factor / Cathepsin D selectivity [1]: 22; Discrimination Factor: Fold Selectivity for Plasmepsin II over Cathepsin D [1]: ~23; Ki (human Cathepsin D; [4]): 1600 nM
590 ± 70 nM	3440 ± 700 nM	Cc1c(O)cccc1C(=O)N[C@@H](Cc1ccccc1)[C@H](O)C(=O)N1CSC(C)(C)[C@H]1C(=O)NC(C)(C)C [KNI-577]	
